Experimental data reported in patent US20240033237A1, “USE OF A-KETOGLUTARATE IN MANUFACTURE OF MEDICAMENT” (TONGJI UNIVERSITY, priority 2019, published 2024).

Test system: chondrocytes
Test: Synthetic phenotype of IL-1β-stimulated mouse chondrocytes (whole-genome sequencing, q-PCR, western blot)
Type: cell-based
Method: Mouse chondrocytes were obtained from 7-day-old C57BL/6 mice (Shanghai Slac laboratory animal Co., Ltd.), and the procedure was as follows: under aseptic surgical conditions, bilateral knee cartilages of C57 mice were carefully stripped and digested with 0.2% neutral collagenase (Serva, Germany) for 8 h; cell precipitates were obtained by centrifugation, and the cells were resuspended in modified Eagle medium (DMEM) (Gibco, USA) containing 10% FBS, inoculated in culture dishes, and cultured with high-sugar DMEM medium (containing 10% FBS, 100 U/mL penicillin and 100 mg/L streptomycin) at 37° C. in a 5% CO2 constant temperature incubator. The medium was changed for the first time at 48 h. […] The cells were collected by centrifugation and resuspended, and the concentration was adjusted for inoculation in culture dishes. The cells were subcultured by the above method, and the obtained cells were labeled as P1, P2, P3 generations, etc.
(2) Real-Time Fluorescent Quantitative PCR (Real Time q-PCR) Analysis • 1) The P1 generation mouse chondrocytes cultured in Embodiment 1 were used, the culture medium was sucked out from the culture dish, and the cells were washed once with PBS. • 2) Extraction of total RNA • 1. chloroform (⅕ volume of RNAiso Plus) was added to the homogenate lysate, the cover of the centrifuge tube was closed tightly, and the centrifuge tube was shaken violently by hand for 15 seconds. […]
P1 generation mouse chondrocytes cultured in Embodiment 1 were subjected to western blot analysis through operations including the following: • 1. […] The protein concentration was determined by the BCA Protein Quantification Kit. […]

COC(=O)CCC(=O)C(=O)OC [α-KG, dimethyl-α-ketoglutarate]
expressions of chondrocyte synthetic genes SOX9, COL2A1, ACAN (q-PCR, 10 ng/ml IL-1β + 7 mM α-KG): promote the expressions | protein expressions of chondrocyte synthetic genes SOX9 and COL2A (western blot, 6 h, 12 h, 24 h, 36 h, 10 ng/ml IL-1β + 7 mM α-KG): promote the protein expressions | expressions of synthetic phenotypic genes (SOX9, COL2A1, ACAN, COL9A1, COL9A2, COL9A3, COL11A1, COL11A2) of chondrocytes (whole-genome sequencing, 24 h, 10 ng/ml IL-1β + 7 mM α-KG vs IL-1β group): increased
